What was measured:
Format in all cases: cell-based
[1] = system: parental ovarian cancer lines and isogenic SKOV3 lines; assay: Viability with MTHFD2 inhibitor and uridine supplementation; conditions: UQCR11-null parental and SKOV3 shUQCR11 cells compared with UQCR11-intact cells
Procedure: (§1) FIG. 15 Investigating metabolic consequence of Complex III impairment and activity of paralogous pathways other than oxidative MTHFD2. (a) Effect of MTHFD2 inhibitor ([…]) and uridine (50 μM) supplementation on viability of parental ovarian cancer lines that are UQCR11—intact (SKOV3) or UQCR11-null (HeyA8, OVCAR8, CAOV3). Data are representative of two independent experiments and presented as mean±s.d. (n=6). Data analyzed with one-way ANOVA with Tukey's correction for multiple comparisons. (b) Effect of MTHFD2 inhibitor and uridine supplementation on viability of isogenic SKOV3 lines expressing shScramble or shUQCR11. […] Data analyzed with one-way ANOVA with Tukey's correction for multiple comparisons. […] (n=6) and analyzed using two-tailed Student's t-test. (d) mRNA expression of NNT, IDH2, IDH3A measured via qRT-PCR after knocking down with shNNT, shIDH2, and shIDH3A, relative to scramble shRNA (shScr), verifying knockdown efficiency in SKOV3 and OVCAR8 cell-lines. […] Data analyzed using unpaired two-tailed Student's t-test. […] Data are analyzed using ordinary one-way ANOVA with multiple comparisons. […] Loss of viability calculated by comparing respective viability in vehicle control-treated cells to MTHFD2 inhibitor-treated cells. […] (n=6) and analyzed using ordinary one-way ANOVA with Dunnett's correction for multiple comparisons. Error bars are calculated using propagation of error principles.

[2] = system: SKOV3 and OVCAR8 cells; assay: MTHFD2 inhibitor in cells with NNT, IDH2 or IDH3A knocked down; conditions: IDH2 or IDH3A knockdown, UQCR11-intact or -null cells, 10 μM, 72 h
Procedure: as §1

[3] = system: isogenic SKOV3 cells (shScramble, shUQCR11); assay: Nucleotide profiling after MTHFD2 inhibitor vs vehicle
From the text: FIG. 14 Analysis of global metabolomics and nucleotide pathways of ovarian cancer lines with and without UQCR11 deletion. (a) Pathway enrichment analysis using metabolic pathways in the KEGG database comparing UQCR11-intact and -null ovarian cancer lines from the CCLE panel (n=50). Pathway coverage represents fraction of metabolites in the KEGG pathway that have available data. Data analyzed using weighted z-test for pathway analysis built into MetaboAnalyst 5.0. (b) Pathway enrichment analysis on all metabolite concentrations measured in SKOV3 (UQCR11-intact) and OVCAR8, HeyA8 and CAOV3 (UQCR11-null) cells for metabolites involved in nucleotide metabolism. Pathway coverage, that is, percentage of metabolites measured from each pathway are represented by a gradient color-scale. […] Data analyzed using weighted z-test for pathway analysis built into MetaboAnalyst 5.0. […] Data are combined from two independent experiments and analyzed using two-sample t-tests corrected for multiple hypothesis testing, built into MetaboAnalyst 5.0. […] (d) Metabolites involved in pyrimidine synthesis and salvage are measured in SKOV3 (UQCR11-intact) and OVCAR8, HeyA8 and CAOV3 (UQCR11-null) cells and overlaid onto the pyrimidine metabolic pathway map. […] Data are combined from two independent experiments and analyzed using two-sample t-tests corrected for multiple hypothesis testing, built into MetaboAnalyst 5.0 (n=6). […]

SMILES: Cc1c(N2CCN(C)[C@@H](C)C2)ccc2c3c(c(=O)oc12)CN(C(=O)c1ccc(NS(C)(=O)=O)c(OC(F)(F)F)c1)CC3 [DS18561882]
- proliferation [1]: suppressed proliferation
- effect of MTHFD2 inhibition on viability [2]: not influenced
- differentially abundant metabolites (nucleotides) [3]: three out of 49

Source: US20260018245A1, “SYSTEMS AND METHODS FOR IDENTIFYING AND TARGETING COLLATERAL LETHAL GENES” (The Regents of the University of Michigan, priority 2022, published 2026)
